Results as given in patent US6375943B1, “Attractant for the mediterranean fruit fly, the method of preparation and method of use” (The United States of America as represented by the …, priority 2000, dated 2002).

Assays:
[1] = system: Mediterranean fruit fly; details: field studies from the literature; cited from earlier work
[2] = system: wild Mediterranean fruit flies; experiment: Wild fly response to ceralure B1 enantiomers, first experiment, Kauai coffee; details: for Male capture compared with other treatments: 10 mg dosage; for Response of wild flies, Mean ± s.e.: 10 mg, traps serviced every two days
[3] = system: Mediterranean fruit fly, Ceratitis capitata (Wiedemann); experiment: Dose-response field test, Jackson traps, released sterile flies; assay type: in vivo; details: for Male capture compared with other treatments: 1 mg, 0.1 mg and 0.01 mg dosages; for Mean male fly capture ± s.e.: 48 hours, released sterile flies
Description: Field attraction of Mediterranean fruit fly, Ceratitis capitata (Wiedemann), to stereoselectively synthesized enantiomers of the ceralure B1 isomer: The attractancy of the two newly synthesized ceralure B1 enantiomers was evaluated against laboratory and wild populations of medfly and the response to these compounds was compared to commercially available trimedlure and ceralure. Field tests using released sterile flies on the island of Hawaii or field tests against wild populations of medfly in commercial coffee plantations on the island of Kauai were carried out to compare the attractancy, dose response and initial persistence of the new molecules and a racemic (50:50) mixture of the two.
(§1) Insects: Sterilized Mediterranean fruit fly pupae were obtained from the USDA-ARS-USPBARC rearing facility in Honolulu, Hi. The flies were reared on an artificial diet (Tanaka, N., et al., J. Econ. Entomol., 62: 967-968 (1969)) under standard mass-rearing conditions and sterilized as pupae at a dose of 150 GY and two days before emergence. Flies were shipped by air to Hilo where 150 ml of pupae (both sexes) was placed in 15-gallon Rubbermaid action packers modified by screened panels on the bottoms and sides of the units. The emerged flies were given water, sugar and hydrolyzed yeast protein. Flies were 2-9 days old when tested. Wild populations of medflies were present in coffee orchards on the island of Kauai.
(§2) Bioassays: All tests were conducted using tent-shaped Jackson traps with open ends, a removable sticky insert and a ½ inch cotton wick containing the test chemical (Harris, E. J., et al., J. Econ. Entomol., 64: 62-65 (1971)). All tests were conducted using a randomized complete block design having five traps of each treatment in the block. The tests were replicated at least 5 times.
Dose-response tests: 10 mg, 1 mg, 0.1 mg and 0.01 mg doses of each compound (in 100 μl acetone) were tested on ½ inch cotton wicks in Jackson traps. Acetone was used in the control. The treatments were ceralure B1 (1S,2S,5S), ceralure B1 (Racemic), ceralure B1 (1R,2R,5R), trimedlure, ceralure and a blank control. Traps were placed in a macadamia nut orchard on the island of Hawaii near the town of Hilo. Traps were separated by every other tree in every row (approximately 15 meters between traps). Flies (approximately 6,000) were then released by slowly walking between rows while allowing the flies to escape from the opened action packer. Traps were left out for 48 hours after which the traps were collected and brought back to the lab for analysis. Both males and females were counted on the sticky inserts.
(§3) Data analysis: Both male and female medfly were counted on the sticky inserts. […] Data was subjected to analysis of variance (Proc GLM) and the Turkey's test for separation of means values. Significant differences in response were determined at the P=0.05 level. Data were not transformed prior to analysis. Statistical analysis was performed on SAS ver 6.12 (SAS Institute, Cary, N.C.) using a PC. Values presented on the tables are mean values SEM.

[4] = system: Mediterranean fruit fly, Ceratitis capitata (Wiedemann); experiment: Longevity field test over three weeks, Jackson traps, released sterile flies; assay type: in vivo; details: for Male capture compared with other treatments: 10 mg dose
Description: as §1, §2
Longevity tests: Preliminary tests to determine the effectiveness of the different chemical compounds over time were also carried out using sterile flies released in a macadamia nut orchard. In these tests all compounds were applied to the cotton wick at a 10 mg dose. 100 μl of each compound was placed on a ½ inch wick inside a Jackson trap. Traps were serviced weekly for three weeks. Inserts were changed each week and new flies were released but the same compounds were left in the field to age.
as §3

[5] = system: wild Mediterranean fruit flies; experiment: Wild fly response, second experiment against standard 2 g trimedlure plug; details: for Male capture compared with other treatments: after 48 hours, 10 mg versus 2 g trimedlure plug
[6] = known in the literature; cited from earlier work
[7] = dose .01 mg on cotton wick, N = 25
[8] = Week 1, 10 mg dose, released sterile flies
[9] = Week 2, 10 mg dose, same lure aged in field
[10] = Week 3, 10 mg dose, same lure aged in field

Molecule | Relative attractiveness toward the Mediterranean fruit fly [1] | Male capture compared with other treatments [2] | Response of wild flies, Mean ± s.e. [2] | Male capture compared with other treatments ([3]; 10 mg) | Mean male fly capture ± s.e. ([3]; dose 1 mg on cotton wick) | Mean male fly capture ± s.e. ([3]; dose 10 mg on cotton wick) | Mean male fly capture ± s.e. [3, 7] | Mean male fly capture ± s.e. ([3]; dose .1 mg on cotton wick) | Male fly capture, mean ± SEM [4, 8] | Male fly capture, mean ± SEM [4, 9] | Male fly capture, mean ± SEM [4, 10] | Male capture compared with other treatments ([4]; after one week) | further results
CCOC(=O)[C@H]1C[C@@H](I)CC[C@@H]1C (racemic) [B1 Racemic, Ethyl(1SR,2SR,5SR)-5-iodo-2-methylcyclohexane-1-carboxylate] | most active | significantly higher captures than the B1 (1S,2S,5S) and commercial ceralure | 70.8 ± 10 b | captured significantly more male medflies than B1 (1S,2S,5S), commercial trimedlure, commercial ceralure and (acetone) control | 376.8 ± 36.7 a | 365.53 ± 33.7 b | 111 ± 12.2 a | 179.67 ± 33.5 b | 274.5 ± 21.8 a | 79.6 ± 33.3 a | 4.7 ± 3.7 a | captured significantly more males than B1 (1S,2S,5S), commercial trimedlure, commercial ceralure and control | Mean male fly capture ± s.e. ([3]; dose .01 mg on cotton wick, N = 25, listed as B1 racemic): 111; Male capture compared with other treatments ([4]; after two weeks): captured significantly more males than any other compound
C[C@H]1C[C@H](Cl)CC[C@@H]1C(=O)OC(C)(C)C (relative stereo) [(1S, 2S, 4R), 1,1-dimethylethyl-cis-4-chloro-trans-2-methylcyclohexane-1-carboxylate] | most attractive |  |  |  |  |  |  |  |  |  |  |  | 
CCOC(=O)[C@@H]1C[C@H](I)CC[C@H]1C [B1 1R,2R,5R, Ethyl (1R,2R,5R)-5-iodo-2-methylcyclohexane-1-carboxylate] |  | captured significantly more males than the B1 racemic mixture | 104.2 ± 13.7 a | captured significantly more male medflies than B1 (1S,2S,5S), commercial trimedlure, commercial ceralure and (acetone) control | 473.07 ± 56.6 a | 487.27 ± 33 a | 117 ± 14.1 a | 303.07 ± 34.5 a | 338.9 ± 40.1 a | 69.3 ± 24.9 ab | .3 ± .3 a | captured significantly more males than B1 (1S,2S,5S), commercial trimedlure, commercial ceralure and control | Dose compared to trimedlure to achieve the same trap capture ([3]; 0.01 mg versus trimedlure 10 mg, mean values from Table 1): 1000 times less; Male capture compared with B1 racemic mixture ([3]; 10 mg, 1 mg and 0.1 mg doses): captured significantly more males than the B1 racemic mixture; Mean male fly capture ± s.e. ([3]; dose .01 mg on cotton wick, N = 25, listed as 1R,2R,5R enantiomer): 117; Activity relative to trimedlure at similar doses ([3]; male capture compared to trimedlure, similar doses): 7-10 times; Male capture compared with other treatments [5]: captured the most male medflies but not significantly more than the B1 racemic mixture and commercial trimedlure; Male capture compared with other treatments ([5]; listed as B1 (1R,2R,5R) enantiomer): caught more wild flies after two days than the TML plug; Flies captured as share of the TML plug baited trap ([5]; after an additional 5 days, 10 mg versus 2 g TML plug): approximately 33%
CCOC(=O)[C@H]1C[C@@H](I)CC[C@@H]1C [B1 1S,2S,5S, Ethyl(1S, 2S, 5S)-5-iodo-2-methylcyclohexane-1-carboxylate] |  |  | 40.5 ± 8.3 c |  | 173 ± 42.2 b | 151.80 ± 25.3 c | 38.3 ± 6.5 b | 57.20 ± 8.3 c | 135.7 ± 33.4 b | 5.5 ± 4.5 b | 0 ± 0 a |  | 
CC1CC(Cl)CCC1C(=O)OC(C)(C)C (stereo not drawn) [TML-C, 1,1-dimethylethyl-cis-4-chloro-trans-2-methylcyclohexane-1-carboxylate] | most active |  |  |  |  |  |  |  |  |  |  |  | 
ethyl 4 (and 5)-iodo-2-methylcyclohexane-1-carboxylate [Com. Ceralure, reference compound] | more persistent and potent attractant than TML |  | 31.8 ± 4.4 c |  | 65.07 ± 9.5 bc | 170.47 ± 33.1 c | 23.4 ± 6.3 bc | 11.27 ± 4.1 c | 135 ± 16.8 b | 3.1 ± 2.2 b | .47 ± .27 a |  | Volatility compared with trimedlure [6]: less volatile than trimedlure
